# Measurements from publication PMC9207808 (ACS Chemical Biology, 2022).
# “Also recorded” adds a separate entry of the source. Residues, ends and D or L forms follow the SMILES beside them.
# How the values were obtained:
# DocSTm [1] = test: Surface plasmon resonance binding to immobilised Doc; parameters: species or system S. Typhimurium; settings: for koff × 10^-6 / kon × 10^6: 1:1 kinetic fit, mean ± SD of at least 3 replicates; for kon × 10^6: single-cycle kinetics (multicycle for PhdSTm1-73); for Half-life of the complex: t1/2 = ln2 / koff
# Procedure: Experiments were performed in a Biacore S200 (Cytiva) with a Series S sensor chip NTA (Cytiva). The data was analyzed using the Biacore Evaluation Software (Cytiva) and curves were plotted using GraphPad Prism 5 (GraphPad Software, U.S.A.). All experiments were performed at 22 °C with a running buffer containing 10 mM HEPES, 500 mM NaCl, 50 μM EDTA, and 0.005% (v/v) TWEEN 20 at pH 8.0. The surface was conditioned following the standard manufacturer’s guidelines and protein immobilization was performed with a 30–60 s pulse (flow rate of 5 μL/min) of Doc (150 nM) in running buffer. […] Surface regeneration was performed with a 1 min pulse of 0.5 M imidazole followed by a 1 min pulse of 0.35 M of EDTA at pH 8.0.
# Binding to Doc was performed using a multicycle kinetics (MCK) setup for peptides 7, 10, and 14, while the remaining samples were tested using a single-cycle kinetics (SCK) setup. The surface was fully regenerated in between each analyte in both cases. In the MCK experiments, increasing concentrations of each analyte were injected with an 80 s pulse (30 μL/min) and dissociation times varied depending on the time required to fully dissociate the complex. The double-referenced sensorgrams (raw data subtracted from a blank injection and reference surface responses) were analyzed using a kinetic and/or a steady-state 1:1 binding model. In the SCK experiments, typically six concentrations of each analyte were sequentially injected with 80 s pulses (30 μL/min), and dissociation times varied depending on the time required to dissociate at least 5% of the complex. The double-referenced sensorgrams were fitted using a kinetic 1:1 binding model.
# At least three independent replicates were measured for each analyte (ESI section 5). When a steady-state fit was applied, the reported Kd and its uncertainty correspond, respectively, to the average and standard deviations of the Kd obtained in each measurement. When a kinetic fit was applied, the reported rate constants (kon and koff) and their uncertainties correspond, respectively, to the average and standard deviations of the rate constants obtained in each measurement. In this case, reported Kd were calculated using the equation below, and the standard deviation of the rate constants was propagated. [drawing 1]
# DocSTm [2] = test: Dot blot phosphorylation assay (EF-Tu phosphorylation by Doc); assay type: biochemical, S. Typhimurium; settings: α-pThr, DocSTm 1 μM, EF-TuSTm 3 μM, ATP 1 mM, inhibitor 10 μM to 5 nM (3-fold dilutions), 16 h at RT
# Procedure: Samples were prepared to a final volume of 10 μL. […] Samples were incubated for 16 h at RT and subsequently spotted on a nitrocellulose membrane. Phosphorylated EF-Tu was detected by immunodecoration using a rabbit monoclonal antiphosphothreonine antibody (Abcam, ab218195) at 1:2000 dilution (1 h at 4 °C), followed by incubation with a goat antirabbit IgG (H+L) HRP conjugate antibody (Advansta) at 1:10 000 dilution (1 h at RT). Chemiluminescence was developed using the HRP Luminata kit (Merck, WBLUR0100) and captured by an ImageQuant LAS4000 Western blot imaging system (Cytiva).
# DocSTm [3] = test: Differential scanning fluorimetry (thermal stabilisation of Doc); assay type: binding, S. Typhimurium; settings: for melting temperature shift ΔTm: DSF, DocSTm 5 μM, analyte 50 μM, Tm with analyte minus Tm of free DocSTm (42.9 ± 0.9 °C), SYPRO Orange, 20 mM K2HPO4, 50 mM (NH4)2SO4, pH 8.0, triplicate; for Average Tm / Tm: DocSTm 5 µM + 50 µM binder; for Average Tm: average of 3 replicates
# Procedure: Experiments were performed in a Mx3005P qPCR System (Agilent) collecting fluorescence data with a temperature ramp of 25 to 95 °C. Samples were prepared in a buffer containing 20 mM K2HPO4 and 50 mM (NH4)2SO4 at pH 8.0. The SYPRO Orange dye (Sigma-Aldrich, 5000× stock in DMSO) was used to monitor protein denaturation and was diluted to a final concentration of 3×. For binding experiments, the final concentration of Doc was 5 μM. Each condition was performed in triplicate (ESI section 4) and the melting curves were plotted using GraphPad Prism 5 (GraphPad Software, U.S.A.). The melting temperatures were obtained by fitting the sigmoidal section of the curves to a Boltzmann sigmoid function.
# [4] = SPR, kinetic fit, KD calculated from mean koff and kon, SD propagated, 22 °C, pH 8.0
SMILES,"Kd (DocSTm [1]; SPR kinetic fit, replicate 1) [nM]","Kd (DocSTm [1]; SPR kinetic fit, replicate 2) [nM]","Kd (DocSTm [1]; SPR kinetic fit, replicate 3) [nM]","koff × 10^-6 (DocSTm [1]; SPR, 22 °C, pH 8.0)","kon × 10^6 (DocSTm [1]; SPR, 22 °C, pH 8.0)",Kd (DocSTm [1]; [4]) [nM],Half-life of the complex (DocSTm [1]) [min],inhibition of EF-TuSTm phosphorylation by DocSTm (in words) (DocSTm [2]),melting temperature shift ΔTm (DocSTm [3]) [°C],Average Tm (DocSTm [3]) [°C],Tm (DocSTm [3]; replicate 1) [°C],Tm (DocSTm [3]; replicate 2) [°C],Tm (DocSTm [3]; replicate 3) [°C],"Kd (DocSTm [1]; SPR kinetic fit, replicate 4) [nM]"
CC[C@H](C)[C@H](NC(=O)[C@H](C)NC(=O)[C@H](C)NC(=O)[C@H](Cc1ccccc1)NC(=O)[C@H](CCC(=O)O)NC(=O)[C@H](CC(=O)O)NC(=O)[C@H](CC(=O)O)NC(=O)[C@H](CCSC)NC(=O)[C@H](Cc1c[nH]c2ccccc12)NC(C)=O)C(=O)N[C@@H](CCSC)C(=O)N[C@@H](C)C(=O)N[C@H](C(=O)N[C@@H](Cc1c[nH]cn1)C(=O)NCC(=O)N[C@@H](CC(N)=O)C(=O)N[C@@H](C)C(=O)N[C@@H](CC(C)C)C(=O)N[C@@H](CCCNC(=N)N)C(=O)N[C@@H](CCC(=O)O)C(=O)N[C@@H](CC(C)C)C(=O)N[C@@H](C)C(=O)N[C@@H](CC(=O)O)C(=O)N[C@@H](CCCCN)C(=O)O)C(C)C [peptide 13] (Ac-WMDDEFAAIMAVHGNALRELADK-OH; C-terminus assumed),0.0475,0.0451,0.0352,112 ± 38 ×10^-6 s-1,2.705 ± 1.041 ×10^6 M-1 s-1,0.042 ± 0.021,102 ± 36,inhibited DocSTm at similar concentrations to peptide 1,27.7 ± 0.9,70.6 ± 0.2,70.8,70.4,70.6,
CC[C@H](C)[C@H](NC(=O)[C@H](C)NC(=O)[C@H](C)NC(=O)[C@H](Cc1ccccc1)NC(=O)[C@H](CCC(=O)O)NC(=O)[C@H](CC(=O)O)NC(=O)[C@H](CC(=O)O)NC(=O)[C@H](CCSC)NC(=O)[C@H](Cc1c[nH]c2ccccc12)NC(C)=O)C(=O)N[C@@H](CCSC)C(=O)N[C@@H](C)C(=O)N[C@H](C(=O)N[C@@H](Cc1c[nH]cn1)C(=O)NCC(=O)N[C@@H](CC(N)=O)C(=O)N[C@@H](CCC(=O)O)C(=O)N[C@@H](CC(C)C)C(=O)N[C@@H](CCCNC(=N)N)C(=O)N[C@@H](CCC(=O)O)C(=O)N[C@@H](CC(C)C)C(=O)N[C@@H](C)C(=O)N[C@@H](CC(=O)O)C(=O)N[C@@H](C)C(=O)O)C(C)C [peptide 19] (Ac-WMDDEFAAIMAVHGNELRELADA-OH; C-terminus assumed),0.101,0.0634,0.1,126 ± 11 ×10^-6 s-1,1.441 ± 0.462 ×10^6 M-1 s-1,0.087 ± 0.029,90 ± 6,inhibited DocSTm at similar concentrations to peptide 1,25.2 ± 1.1,68.0 ± 0.6,68.8,67.6,67.7,0.103
CC[C@H](C)[C@H](NC(=O)[C@H](C)NC(=O)[C@H](C)NC(=O)[C@H](Cc1ccccc1)NC(=O)[C@H](CCC(=O)O)NC(=O)[C@H](CC(=O)O)NC(=O)[C@H](CC(=O)O)NC(=O)[C@H](CCSC)NC(=O)[C@H](Cc1c[nH]c2ccccc12)NC(C)=O)C(=O)N[C@@H](CCSC)C(=O)N[C@@H](C)C(=O)N[C@H](C(=O)N[C@@H](Cc1c[nH]cn1)C(=O)NCC(=O)N[C@@H](CC(N)=O)C(=O)N[C@@H](CCC(=O)O)C(=O)N[C@@H](CC(C)C)C(=O)N[C@@H](CCCNC(=N)N)C(=O)N[C@@H](CCC(=O)O)C(=O)N[C@@H](CC(C)C)C(=O)N[C@@H](C)C(=O)O)C(C)C [peptide 20] (Ac-WMDDEFAAIMAVHGNELRELA-OH; N-terminus and C-terminus assumed),0.447,0.414,0.424,393 ± 18 ×10^-6 s-1,0.917 ± 0.023 ×10^6 M-1 s-1,0.428 ± 0.023,29.4 ± 1.2,inhibition of DocSTm comparable to 1,25.6 ± 0.9,68.5 ± 0.1,68.5,68.4,68.5,
CC[C@H](C)[C@H](NC(=O)[C@H](C)NC(=O)[C@H](C)NC(=O)[C@H](Cc1ccccc1)NC(=O)[C@H](CCC(=O)O)NC(=O)[C@H](Cc1c[nH]c2ccccc12)NC(C)=O)C(=O)N[C@@H](CCSC)C(=O)N[C@@H](C)C(=O)N[C@H](C(=O)N[C@@H](Cc1c[nH]cn1)C(=O)NCC(=O)N[C@@H](CC(N)=O)C(=O)N[C@@H](CCC(=O)O)C(=O)N[C@@H](CC(C)C)C(=O)N[C@@H](CCCNC(=N)N)C(=O)N[C@@H](CCC(=O)O)C(=O)N[C@@H](CC(C)C)C(=O)N[C@@H](C)C(=O)N[C@@H](CC(=O)O)C(=O)N[C@@H](CCCCN)C(=O)O)C(C)C [peptide 21] (Ac-WEFAAIMAVHGNELRELADK-OH; N-terminus and C-terminus assumed),0.41,0.412,0.365,496 ± 58 ×10^-6 s-1,1.252 ± 0.080 ×10^6 M-1 s-1,0.396 ± 0.052,23.4 ± 3,inhibition of DocSTm comparable to 1,19.3 ± 0.9,62.2 ± 0.2,62.3,62.0,62.4,
CC[C@H](C)[C@H](NC(=O)[C@H](C)NC(=O)[C@H](C)NC(=O)[C@H](Cc1ccccc1)NC(=O)[C@H](CCC(=O)O)NC(=O)[C@H](Cc1c[nH]c2ccccc12)NC(C)=O)C(=O)N[C@@H](CCSC)C(=O)N[C@@H](C)C(=O)N[C@H](C(=O)N[C@@H](Cc1c[nH]cn1)C(=O)NCC(=O)N[C@@H](CC(N)=O)C(=O)N[C@@H](CCC(=O)O)C(=O)N[C@@H](CC(C)C)C(=O)N[C@@H](CCCNC(=N)N)C(=O)N[C@@H](CCC(=O)O)C(=O)N[C@@H](CC(C)C)C(=O)N[C@@H](C)C(=O)O)C(C)C [peptide 22] (Ac-WEFAAIMAVHGNELRELA-OH; N-terminus and C-terminus assumed),0.342,0.336,0.365,503 ± 16 ×10^-6 s-1,1.449 ± 0.085 ×10^6 M-1 s-1,,22.8 ± 0.6,severe loss of inhibitory activity; also recorded: poor DocSTm inhibitors,16.3 ± 0.9,59.2 ± 0.3,58.89,59.16,59.42,
